From PMC6267684, “Pharmacokinetic evaluation of the PNC disassembler metarrestin in wild-type and Pdx1-Cre;LSL-Kras^G12D/+;Tp53^R172H/+ (KPC) mice, a genetically engineered model of pancreatic cancer” (Cancer Chemotherapy and Pharmacology, 2018)

System: PNC in PC3M cells
Test: PNC disassembly assay in PC3M cells
Format: cell-based
Details: PC3M (PTB-GFP) cells
Method: The PNC disassembly assay has been previously described. […] Cells were fixed with […] for 10 min at room temperature. […] Confocal images were obtained using Opera Phoenix (PerkinElmer, Waltham, MA) and a 20× objective lens.
To examine whether measured intratumor metarrestin concentrations measured in PK studies track with intracellular metarrestin concentration, we first decided to synthesize a fluorophore conjugated analog of metarrestin. Structure activity relationship studies around the structure of metarrestin were conducted in a high throughput assay that measured in dose dependence the ability of compounds to reducing PNC prevalence in PC3M cells. […] This analog was chemically conjugated to the fluorophore boron-dipyrromethene (BODIPY®) to track the disassembly of the PNC in PC3M cancer cells by confocal microscopy (Suppl. Figure 2). […] Next, to examine cellular metarrestin levels in relation to extracellular concentrations, we exposed KPC and PC3M cells at 1 and 10 µM concentrations of metarrestin and harvested cells at different timepoints.

N=c1c2c(-c3ccccc3)c(-c3ccccc3)n(Cc3ccccc3)c2ncn1C1CCOCC1 [NCGC00244845]
IC50: 89 nM
